Experimental findings from ChEMBL document CHEMBL3779835, “Identification of an Inhibitor of the Aminoglycoside 6'-N-Acetyltransferase type Ib [AAC(6')-Ib] by Glide Molecular Docking” (Medchemcomm, 2016) are described below.

Experiment [1] is described as follows: Inhibition of AAC(6')-1b (unknown origin) expressed in Escherichia coli TOP10 assessed as reduction in acetylation of kanamycin A in presence of acetyl CoA by DTNB based microplate reader analysis.
A short description of experiment [2]: Inhibition of AAC(6')-1b (unknown origin) expressed in Escherichia coli TOP10 assessed as reduction in acetylation of amikacin in presence of acetyl CoA by DTNB based microplate reader analysis.
Experiment [3] in a line: Uncompetitive inhibition of AAC(6')-1b (unknown origin) expressed in Escherichia coli TOP10 assessed as reduction in acetylation of kanamycin A in presence of varying acetyl CoA by DTNB based microplate reader analysis.
The nature of experiment [4]: Mixed-noncompetitive inhibition of AAC(6')-1b (unknown origin) expressed in Escherichia coli TOP10 assessed as reduction in acetylation of kanamycin A in presence of varying kanamycin A and in presence of fixed acetyl CoA level by DTNB based microplate reader analysis.
A further experiment concerns Klebsiella pneumoniae. The experiment can be described thus: Inhibition of AAC(6')-1b in amikacin-resistant Klebsiella pneumoniae harboring AAC(6')-1b assessed as growth inhibition in presence of amikacin.
For experiment [5], the system named is Acinetobacter baumannii. The experiment can be described thus: Inhibition of AAC(6')-1b in amikacin-resistant Acinetobacter baumannii A155 harboring AAC(6')-1b assessed as growth inhibition at 50 uM in presence of 8 ug/ml amikacin.
Experiment [6] has as its system Acinetobacter baumannii. The experiment can be described thus: Inhibition of AAC(6')-1b in amikacin-resistant Acinetobacter baumannii A155 harboring AAC(6')-1b assessed as growth inhibition at 100 uM in presence of 6 ug/ml amikacin.

What is called IC50 is the midpoint of a concentration-inhibition curve.

Active and inactive are the calls of the source. The rule behind the calls is not given here.

In the case of `NCCc1cccc(CN2CCC(O)(CN3CCCCC3)C2)c1` (racemic), the IC50 in experiment [1] stood at 39.7 µM; in experiment [2] it was 34.9 µM. Moreover, the inhibition entry (in experiment [3]; in experiment [4]; in the experiment with Acinetobacter baumannii [5]; in the experiment on Acinetobacter baumannii [6]) was “Active” in each case. Also, the “growth inhibition (GI)” value with Klebsiella pneumoniae was “inactive”.
